Here are results for twelve molecules from patent US9499550B2 (BRISTOL-MYERS SQUIBB COMPANY, priority 2012, dated 2016).

Assay [1] relates to HCV genotype 1a (H77 strain) replicon in HUH-7 cells. Nature of the assay: HCV replicon luciferase reporter assay, genotype 1a. It counts as cell-based. The note with it: HCV genotype 1a replicon luciferase, 3 days incubation, read-out: LE_1a (EC50, range). Summed up: (§1)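 Replicon inhibition for both genotypes was measured as Renilla luciferase signal (EnduRen, 7.5 μM final, 2 h) after 3-day, 37° C exposure of replicon-bearing HUH-7 cells in 4% FCS DMEM, 0.5% DMSO. The 1b construct carries S1179I; the 1a H77 construct carries P1496L and S2204I. Twenty-point, 3-fold dilutions were fitted four-parametrically for EC50, and CC50 was taken from multiplexed Cell Titer-Blue.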
(A replicon is a self-replicating genome or part of one, used to study replication in cells.)

Assay [2] concerns HCV genotype 1b (Con1) replicon in HUH-7 cells. Nature of the assay: HCV replicon luciferase reporter assay, genotype 1b. It counts as cell-based. The note with it: HCV genotype 1b replicon luciferase, 3 days incubation, read-out: LE_1b (EC50, range). Summed up: as §1

Where two headings read alike, the source gives them in different places.

What is called EC50 is the concentration at which the effect is half-maximal. `C[C@H]1CC/C=C\[C@@H]2C[C@@]2(C(=O)NS(=O)(=O)C2(CF)CC2)NC(=O)[C@@H]2C[C@@H](Oc3nc4c(c5ccccc35)OCCC4)CN2C(=O)[C@@H](NC(=O)OC(C)(C)C(C)(F)F)[C@H](C)C1` [Compound 6039, 3,3-difluoro-2-methylbutan-2-yl((2R,6S,7R,9S,13aS,14aR,16aS,Z)-2-((3,4-dihydro-2H-pyrano[3,2-c]isoquinolin-6-yl)oxy)-14a-(((1-(fluoromethyl)cyclopropyl)sulfonyl)carbamoyl)-7,9-dimethyl-5,16-dioxo-1,2,3,5,6,7,8,9,10,11,13a,14,14a,15,16,16a-hexadecahydrocyclopropa[e]pyrrolo[1,2-a][1,4]diazacyclopentadecin-6-yl)carbamate]: the EC50 in assay [1] and in assay [2] was 5.01 to 35 nM in each case.

Take `C[C@@H]1CC/C=C\[C@@H]2C[C@@]2(C(=O)NS(=O)(=O)C2(CF)CC2)NC(=O)[C@@H]2C[C@@H](Oc3nc4c(c5ccccc35)OCCC4)CN2C(=O)[C@@H](NC(=O)OC(C)(C)C(C)(F)F)[C@H](C)C1` [Compound 6040, 3,3-difluoro-2-methylbutan-2-yl((2R,6S,7R,9R,13aS,14aR,16aS,Z)-2-((3,4-dihydro-2H-pyrano[3,2-c]isoquinolin-6-yl)oxy)-14a-(((1-(fluoromethyl)cyclopropyl)sulfonyl)carbamoyl)-7,9-dimethyl-5,16-dioxo-1,2,3,5,6,7,8,9,10,11,13a,14,14a,15,16,16a-hexadecahydrocyclopropa[e]pyrrolo[1,2-a][1,4]diazacyclopentadecin-6-yl)carbamate]: the EC50 fell in the range of 1.01 to 5 nM in assay [1] and 0.51 to 1 nM in assay [2].

Take `C[C@@H]1CC/C=C\[C@@H]2C[C@@]2(C(=O)NS(=O)(=O)C2(CF)CC2)NC(=O)[C@@H]2C[C@@H](Oc3nc4c(c5ccccc35)CCCO4)CN2C(=O)[C@@H](NC(=O)OC(C)(C)C)[C@H](C)C1` [Compound 6042, tert-butyl ((2R,6S,7R,9R,13aS,14aR,16aS,Z)-2-((2,3-dihydro-1H-pyrano[2,3-c]isoquinolin-6-yl)oxy)-14a-(((1-(fluoromethyl)cyclopropyl)sulfonyl)carbamoyl)-7,9-dimethyl-5,16-dioxo-1,2,3,5,6,7,8,9,10,11,13a,14,14a,15,16,16a-hexadecahydrocyclopropa[e]pyrrolo[1,2-a][1,4]diazacyclopentadecin-6-yl)carbamate]: the EC50 in assay [1] (Hepatitis C virus, Huh-7, 72 h) is 1.01 to 5 nM; in assay [2] (Hepatitis C virus, Huh-7, 72 h), 0.51 to 1 nM.

As for `C[C@@H]1CC/C=C\[C@@H]2C[C@@]2(C(=O)NS(=O)(=O)C2(C)CC2)NC(=O)[C@@H]2C[C@@H](Oc3nc4c(c5ccccc35)CCCO4)CN2C(=O)[C@@H](NC(=O)OC(C)(C)C)[C@H](C)C1` [Compound 6044, tert-butyl ((2R,6S,7R,9R,13aS,14aR,16aS,Z)-2-((2,3-dihydro-1H-pyrano[2,3-c]isoquinolin-6-yl)oxy)-7,9-dimethyl-14a-(((1-methylcyclopropyl)sulfonyl)carbamoyl)-5,16-dioxo-1,2,3,5,6,7,8,9,10,11,13a,14,14a,15,16,16a-hexadecahydrocyclopropa[e]pyrrolo[1,2-a][1,4]diazacyclopentadecin-6-yl)carbamate], the EC50 in assay [1] (Hepatitis C virus, Huh-7, 72 h) was in the range of 1.01 to 5 nM; in assay [2] (Hepatitis C virus, Huh-7, 72 h) it was 0.1 to 0.5 nM.

Consider `C[C@@H]1CC/C=C\[C@@H]2C[C@@]2(C(=O)NS(=O)(=O)C2(C)CC2)NC(=O)[C@@H]2C[C@@H](Oc3nc4c(c5ccccc35)CCCO4)CN2C(=O)[C@@H](NC(=O)OC(C)(C)C(F)(F)F)[C@H](C)C1` [Compound 6046, 1,1,1-trifluoro-2-methylpropan-2-yl((2R,6S,7R,9R,13aS,14aR,16aS,Z)-2-((2,3-dihydro-1H-pyrano[2,3-c]isoquinolin-6-yl)oxy)-7,9-dimethyl-14a-(((1-methylcyclopropyl)sulfonyl)carbamoyl)-5,16-dioxo-1,2,3,5,6,7,8,9,10,11,13a,14,14a,15,16,16a-hexadecahydrocyclopropa[e]pyrrolo[1,2-a][1,4]diazacyclopentadecin-6-yl)carbamate], for which the EC50 in assay [1] (Hepatitis C virus, Huh-7, 72 h) lay within 1.01 to 5 nM; in assay [2] (Hepatitis C virus, Huh-7, 72 h) it was 0.51 to 1 nM.

Consider `C[C@@H]1CC/C=C\[C@@H]2C[C@@]2(C(=O)NS(=O)(=O)C2(C)CC2)NC(=O)[C@@H]2C[C@@H](Oc3nc4c(c5ccccc35)CCCO4)CN2C(=O)[C@@H](NC(=O)OC(C)(C)C(C)(F)F)[C@H](C)C1` [Compound 6048, 3,3-difluoro-2-methylbutan-2-yl((2R,6S,7R,9R,13aS,14aR,16aS,Z)-2-((2,3-dihydro-1H-pyrano[2,3-c]isoquinolin-6-yl)oxy)-7,9-dimethyl-14a-(((1-methylcyclopropyl)sulfonyl)carbamoyl)-5,16-dioxo-1,2,3,5,6,7,8,9,10,11,13a,14,14a,15,16,16a-hexadecahydrocyclopropa[e]pyrrolo[1,2-a][1,4]diazacyclopentadecin-6-yl)carbamate], for which the EC50 was in the range of 1.01 to 5 nM in assay [1] (Hepatitis C virus, Huh-7, 72 h) and 0.1 to 0.5 nM in assay [2] (Hepatitis C virus, Huh-7, 72 h).

`C[C@@H]1CC/C=C\[C@@H]2C[C@@]2(C(=O)NS(=O)(=O)C2(CF)CC2)NC(=O)[C@@H]2C[C@@H](Oc3nc4c(c5ccccc35)CCCO4)CN2C(=O)[C@@H](NC(=O)OC(C)(C)C(F)(F)F)[C@H](C)C1` [Compound 6050, 1,1,1-trifluoro-2-methylpropan-2-yl((2R,6S,7R,9R,13aS,14aR,16aS,Z)-2-((2,3-dihydro-1H-pyrano[2,3-c]isoquinolin-6-yl)oxy)-14a-(((1-(fluoromethyl)cyclopropyl)sulfonyl)carbamoyl)-7,9-dimethyl-5,16-dioxo-1,2,3,5,6,7,8,9,10,11,13a,14,14a,15,16,16a-hexadecahydrocyclopropa[e]pyrrolo[1,2-a][1,4]diazacyclopentadecin-6-yl)carbamate]: the EC50 in assay [1] (Hepatitis C virus, Huh-7, 72 h) was in the range of 1.01 to 5 nM; in assay [2] (Hepatitis C virus, Huh-7, 72 h) it was 0.1 to 0.5 nM.

As for `C[C@@H]1CC/C=C\[C@@H]2C[C@@]2(C(=O)NS(=O)(=O)C2(CF)CC2)NC(=O)[C@@H]2C[C@@H](Oc3nc4c(c5ccccc35)CCCO4)CN2C(=O)[C@@H](NC(=O)OC(C)(C)C(C)(F)F)[C@H](C)C1` [Compound 6052, 3,3-difluoro-2-methylbutan-2-yl((2R,6S,7R,9R,13aS,14aR,16aS,Z)-2-((2,3-dihydro-1H-pyrano[2,3-c]isoquinolin-6-yl)oxy)-14a-(((1-(fluoromethyl)cyclopropyl)sulfonyl)carbamoyl)-7,9-dimethyl-5,16-dioxo-1,2,3,5,6,7,8,9,10,11,13a,14,14a,15,16,16a-hexadecahydrocyclopropa[e]pyrrolo[1,2-a][1,4]diazacyclopentadecin-6-yl)carbamate], the EC50 in assay [1] (Hepatitis C virus, Huh-7, 72 h) lay within 5.01 to 35 nM; in assay [2] (Hepatitis C virus, Huh-7, 72 h), 0.1 to 0.5 nM.

For `CC[C@@H]1C[C@H](C)CC/C=C\[C@@H]2C[C@@]2(C(=O)NS(=O)(=O)C2(C)CC2)NC(=O)[C@@H]2C[C@@H](Oc3nc4c(c5ccccc35)CCCO4)CN2C(=O)[C@H]1NC(=O)OC(C)(C)C(F)(F)F` [Compound 6054, 1,1,1-trifluoro-2-methylpropan-2-yl((2R,6S,7R,9R,13aS,14aR,16aS,Z)-2-((2,3-dihydro-1H-pyrano[2,3-c]isoquinolin-6-yl)oxy)-7-ethyl-9-methyl-14a-(((1-methylcyclopropyl)sulfonyl)carbamoyl)-5,16-dioxo-1,2,3,5,6,7,8,9,10,11,13a,14,14a,15,16,16a-hexadecahydrocyclopropa[e]pyrrolo[1,2-a][1,4]diazacyclopentadecin-6-yl)carbamate], the EC50 fell in the range of 1.01 to 5 nM in assay [1] (Hepatitis C virus, Huh-7, 72 h) and 0.1 to 0.5 nM in assay [2] (Hepatitis C virus, Huh-7, 72 h).

With `CC[C@@H]1C[C@H](C)CC/C=C\[C@@H]2C[C@@]2(C(=O)NS(=O)(=O)C2(C)CC2)NC(=O)[C@@H]2C[C@@H](Oc3nc4c(c5ccccc35)CCCO4)CN2C(=O)[C@H]1NC(=O)OC(C)(C)C(C)(F)F` [Compound 6056, 3,3-difluoro-2-methylbutan-2-yl((2R,6S,7R,9R,13aS,14aR,16aS,Z)-2-((2,3-dihydro-1H-pyrano[2,3-c]isoquinolin-6-yl)oxy)-7-ethyl-9-methyl-14a-(((1-methylcyclopropyl)sulfonyl)carbamoyl)-5,16-dioxo-1,2,3,5,6,7,8,9,10,11,13a,14,14a,15,16,16a-hexadecahydrocyclopropa[e]pyrrolo[1,2-a][1,4]diazacyclopentadecin-6-yl)carbamate], the EC50 was in the range of 1.01 to 5 nM in assay [1] (Hepatitis C virus, Huh-7, 72 h) and 0.1 to 0.5 nM in assay [2] (Hepatitis C virus, Huh-7, 72 h).

As for `C[C@@H]1CC/C=C\[C@@H]2C[C@@]2(C(=O)NS(=O)(=O)C2(C)CC2)NC(=O)[C@@H]2C[C@@H](Oc3nccc4c5c(ccc34)CCCO5)CN2C(=O)[C@@H](NC(=O)OC(C)(C)C(F)(F)F)[C@H](C)C1` [Compound 6058, 1,1,1-trifluoro-2-methylpropan-2-yl((2R,6S,7R,9R,13aS,14aR,16aS,Z)-2-((3,4-dihydro-2H-pyrano[2,3-f]isoquinolin-7-yl)oxy)-7,9-dimethyl-14a-(((1-methylcyclopropyl)sulfonyl)carbamoyl)-5,16-dioxo-1,2,3,5,6,7,8,9,10,11,13a,14,14a,15,16,16a-hexadecahydrocyclopropa[e]pyrrolo[1,2-a][1,4]diazacyclopentadecin-6-yl)carbamate], the EC50 is 1.01 to 5 nM in assay [1] (Hepatitis C virus, Huh-7, 72 h) and 0.51 to 1 nM in assay [2] (Hepatitis C virus, Huh-7, 72 h).

As for `C[C@@H]1CC/C=C\[C@@H]2C[C@@]2(C(=O)NS(=O)(=O)C2(C)CC2)NC(=O)[C@@H]2C[C@@H](Oc3nccc4c5c(ccc34)CCCO5)CN2C(=O)[C@@H](NC(=O)OC(C)(C)C(C)(F)F)[C@H](C)C1` [Compound 6060, 3,3-difluoro-2-methylbutan-2-yl((2R,6S,7R,9R,13aS,14aR,16aS,Z)-2-((3,4-dihydro-2H-pyrano[2,3-f]isoquinolin-7-yl)oxy)-7,9-dimethyl-14a-(((1-methylcyclopropyl)sulfonyl)carbamoyl)-5,16-dioxo-1,2,3,5,6,7,8,9,10,11,13a,14,14a,15,16,16a-hexadecahydrocyclopropa[e]pyrrolo[1,2-a][1,4]diazacyclopentadecin-6-yl)carbamate], the EC50 in assay [1] (Hepatitis C virus, Huh-7, 72 h) lay in the range of 1.01 to 5 nM; in assay [2] (Hepatitis C virus, Huh-7, 72 h), 1.01 to 5 nM.
